Reference: patent US10954269B2, “Anti-inflammatory tripeptides” (Dr. August Wolff Gmbh & Co. KG Arzneimittel, priority 2013, dated 2021)
[ ]: non-standard residue; d: D form. Aib = CC(C)(N)C(=O)O

Tested on: primary human T-cells
Assay: Cytokine secretion on protein level in activated primary human T-cells (13-plex FACS / Luminex, supernatant)
Assay type: cell-based
Procedure, shortened: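 Stimulus: PMA/Ionomycin or IFN-γ, 48 h; cells: HaCaT or human peripheral-blood T-cells; tripeptide treatment; readout: supernatant cytokines via 13-plex FACS or Luminex, 48–72 h post-stimulation.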

[1] = primary human T-cells stimulated with IFN-γ, 10^−9M
[2] = primary human T-cells stimulated with IFN-γ, substance 10^−9M
[3] = primary human T-cells stimulated with PBS, 10^−9M
[4] = primary human T-cells stimulated with PBS, substance 10^−9M
[5] = primary human T-cells stimulated with PMA/Ionomycin, 10^−9M
[6] = primary human T-cells stimulated with PMA/Ionomycin, substance 10^−9M

alpha-melanocyte-stimulating hormone [α-MSH, reference compound]
IL-1 cytokine concentration [1]: 229 pg/mL | IL-2 cytokine concentration [1]: 0 pg/mL | IL-4 cytokine concentration [1]: 136.29 pg/mL | IL-5 cytokine concentration [1]: 145.89 pg/mL | IL-6 cytokine concentration [1]: 70.19 pg/mL | IL-9 cytokine concentration [1]: 90.3 pg/mL | IL-10 cytokine concentration [1]: 109.15 pg/mL | IL-12p70 cytokine concentration [1]: 727.17 pg/mL | IL-13 cytokine concentration [1]: 59.46 pg/mL | IL-17 cytokine concentration [1]: 125.8 pg/mL | IL-22 cytokine concentration [1]: 0 pg/mL | TNF-α cytokine concentration [1]: 155.15 pg/mL | IL-1 cytokine concentration [2]: 0 pg/mL | IL-2 cytokine concentration [2]: 0 pg/mL | IL-4 cytokine concentration [2]: 60.49 pg/mL | IL-5 cytokine concentration [2]: 0 pg/mL | IL-6 cytokine concentration [2]: 64.54 pg/mL | IL-9 cytokine concentration [2]: 5.27 pg/mL | IL-10 cytokine concentration [2]: 43.9 pg/mL | IL-12 cytokine concentration [2]: 0 pg/mL | IL-12p70 cytokine concentration [2]: 0 pg/mL | IL-13 cytokine concentration [2]: 0 pg/mL | IL-17 cytokine concentration [2]: 0 pg/mL | IL-22 cytokine concentration [2]: 0 pg/mL | TNF-α cytokine concentration [2]: 18.85 pg/mL | IFN-γ cytokine concentration [3]: 584.13 pg/mL | IL-1 cytokine concentration [3]: 233.71 pg/mL | IL-2 cytokine concentration [3]: 166.83 pg/mL | IL-4 cytokine concentration [3]: 158.58 pg/mL | IL-5 cytokine concentration [3]: 26.63 pg/mL | IL-6 cytokine concentration [3]: 103.97 pg/mL | IL-9 cytokine concentration [3]: 93.72 pg/mL | IL-10 cytokine concentration [3]: 154.89 pg/mL | IL-12p70 cytokine concentration [3]: 100.99 pg/mL | IL-13 cytokine concentration [3]: 74.71 pg/mL | IL-17 cytokine concentration [3]: 123.27 pg/mL | IL-22 cytokine concentration [3]: 2258.05 pg/mL | TNF-α cytokine concentration [3]: 127.96 pg/mL | IFN-γ cytokine concentration [4]: 0 pg/mL | IL-1 cytokine concentration [4]: 0 pg/mL | IL-2 cytokine concentration [4]: 139.68 pg/mL | IL-4 cytokine concentration [4]: 72.42 pg/mL | IL-5 cytokine concentration [4]: 14.37 pg/mL | IL-6 cytokine concentration [4]: 117.88 pg/mL | IL-9 cytokine concentration [4]: 34.99 pg/mL | IL-10 cytokine concentration [4]: 164.01 pg/mL | IL-12 cytokine concentration [4]: 0 pg/mL | IL-12p70 cytokine concentration [4]: 0 pg/mL | IL-13 cytokine concentration [4]: 185.71 pg/mL | IL-17 cytokine concentration [4]: 139.74 pg/mL | IL-22 cytokine concentration [4]: 0 pg/mL | INF-α cytokine concentration [4]: 0 pg/mL | TNF-a cytokine concentration [4]: 59.06 pg/mL | TNF-α cytokine concentration [4]: 59.06 pg/mL | IFN-γ cytokine concentration [5]: 1049.41 pg/mL | IL-1 cytokine concentration [5]: 69689.2 pg/mL | IL-2 cytokine concentration [5]: 12000 pg/mL | IL-4 cytokine concentration [5]: 200.9 pg/mL | IL-5 cytokine concentration [5]: 145.89 pg/mL | IL-6 cytokine concentration [5]: 1542.01 pg/mL | IL-9 cytokine concentration [5]: 187.5 pg/mL | IL-10 cytokine concentration [5]: 4311.06 pg/mL | IL-12p70 cytokine concentration [5]: 1161.04 pg/mL | IL-13 cytokine concentration [5]: 462.62 pg/mL | IL-17 cytokine concentration [5]: 2836.14 pg/mL | IL-22 cytokine concentration [5]: 24400.4 pg/mL | TNF-α cytokine concentration [5]: 3600 pg/mL | IFN-γ cytokine concentration [6]: 10814.4 pg/mL | IL-1 cytokine concentration [6]: 530.55 pg/mL | IL-2 cytokine concentration [6]: 2307.5 pg/mL | IL-4 cytokine concentration [6]: 70.32 pg/mL | IL-5 cytokine concentration [6]: 278.92 pg/mL | IL-6 cytokine concentration [6]: 1241.17 pg/mL | IL-9 cytokine concentration [6]: 264.59 pg/mL | IL-10 cytokine concentration [6]: 977.83 pg/mL | IL-12 cytokine concentration [6]: 0 pg/mL | IL-12p70 cytokine concentration [6]: 0 pg/mL | IL-13 cytokine concentration [6]: 1065.69 pg/mL | IL-17 cytokine concentration [6]: 1660.92 pg/mL | IL-22 cytokine concentration [6]: 0 pg/mL | INF-α cytokine concentration [6]: 10814.35 pg/mL | TNF-a cytokine concentration [6]: 3346.46 pg/mL | TNF-α cytokine concentration [6]: 3346.46 pg/mL

H-Phe-Pro-[Aib]-OH [Example 13]
secretion / expression of pro-inflammatory cytokines (supernatant) (activated primary human T-cells): decreased expression | immunomodulatory activity relative to MMF (cells activated with PMA/Ionomycin and IFN-γ, protein and gene level): higher | IL-1 cytokine concentration [2]: 162.75 pg/mL | IL-2 cytokine concentration [2]: 187.16 pg/mL | IL-4 cytokine concentration [2]: 0 pg/mL | IL-5 cytokine concentration [2]: 15.32 pg/mL | IL-6 cytokine concentration [2]: 60.51 pg/mL | IL-9 cytokine concentration [2]: 0 pg/mL | IL-10 cytokine concentration [2]: 0 pg/mL | IL-12p70 cytokine concentration [2]: 0 pg/mL | IL-13 cytokine concentration [2]: 0 pg/mL | IL-17 cytokine concentration [2]: 81.59 pg/mL | IL-22 cytokine concentration [2]: 0 pg/mL | TNF-α cytokine concentration [2]: 0 pg/mL | IL-1 cytokine concentration [4]: 0 pg/mL | IL-2 cytokine concentration [4]: 115.73 pg/mL | IL-4 cytokine concentration [4]: 73.19 pg/mL | IL-5 cytokine concentration [4]: 0 pg/mL | IL-6 cytokine concentration [4]: 113.86 pg/mL | IL-9 cytokine concentration [4]: 10.84 pg/mL | IL-10 cytokine concentration [4]: 147.54 pg/mL | IL-12p70 cytokine concentration [4]: 0 pg/mL | IL-13 cytokine concentration [4]: 0 pg/mL | IL-17 cytokine concentration [4]: 65.17 pg/mL | IL-22 cytokine concentration [4]: 0 pg/mL | INF-α cytokine concentration [4]: 0 pg/mL | TNF-α cytokine concentration [4]: 50.36 pg/mL | IL-1 cytokine concentration [6]: 558.46 pg/mL | IL-2 cytokine concentration [6]: 2092.22 pg/mL | IL-4 cytokine concentration [6]: 0 pg/mL | IL-5 cytokine concentration [6]: 354.06 pg/mL | IL-6 cytokine concentration [6]: 1185.87 pg/mL | IL-9 cytokine concentration [6]: 248.66 pg/mL | IL-10 cytokine concentration [6]: 872.88 pg/mL | IL-12p70 cytokine concentration [6]: 0 pg/mL | IL-13 cytokine concentration [6]: 1081.09 pg/mL | IL-17 cytokine concentration [6]: 1069.51 pg/mL | IL-22 cytokine concentration [6]: 0 pg/mL | INF-α cytokine concentration [6]: 7456.27 pg/mL | TNF-α cytokine concentration [6]: 2706.11 pg/mL

H-Lys-[dP]-Thr-OH [K(D)PT, reference compound]
IL-1 cytokine concentration [1]: 335.73 pg/mL | IL-2 cytokine concentration [1]: 79.24 pg/mL | IL-4 cytokine concentration [1]: 184.31 pg/mL | IL-5 cytokine concentration [1]: 249.7 pg/mL | IL-6 cytokine concentration [1]: 93.02 pg/mL | IL-9 cytokine concentration [1]: 93.74 pg/mL | IL-10 cytokine concentration [1]: 169.54 pg/mL | IL-12p70 cytokine concentration [1]: 895.95 pg/mL | IL-13 cytokine concentration [1]: 72.09 pg/mL | IL-17 cytokine concentration [1]: 204.05 pg/mL | IL-22 cytokine concentration [1]: 22747.7 pg/mL | TNF-α cytokine concentration [1]: 178.65 pg/mL | IL-1 cytokine concentration [2]: 0 pg/mL | IL-2 cytokine concentration [2]: 0 pg/mL | IL-4 cytokine concentration [2]: 0 pg/mL | IL-5 cytokine concentration [2]: 0 pg/mL | IL-6 cytokine concentration [2]: 58.47 pg/mL | IL-9 cytokine concentration [2]: 9.51 pg/mL | IL-10 cytokine concentration [2]: 33.21 pg/mL | IL-12 cytokine concentration [2]: 0 pg/mL | IL-12p70 cytokine concentration [2]: 0 pg/mL | IL-13 cytokine concentration [2]: 0 pg/mL | IL-17 cytokine concentration [2]: 0 pg/mL | IL-22 cytokine concentration [2]: 0 pg/mL | TNF-α cytokine concentration [2]: 0 pg/mL | IFN-γ cytokine concentration [3]: 610.05 pg/mL | IL-1 cytokine concentration [3]: 268.37 pg/mL | IL-2 cytokine concentration [3]: 435.34 pg/mL | IL-4 cytokine concentration [3]: 136.29 pg/mL | IL-5 cytokine concentration [3]: 0 pg/mL | IL-6 cytokine concentration [3]: 92.39 pg/mL | IL-9 cytokine concentration [3]: 102.2 pg/mL | IL-10 cytokine concentration [3]: 126.13 pg/mL | IL-12p70 cytokine concentration [3]: 114.67 pg/mL | IL-13 cytokine concentration [3]: 80.48 pg/mL | IL-17 cytokine concentration [3]: 182.45 pg/mL | IL-22 cytokine concentration [3]: 0 pg/mL | TNF-α cytokine concentration [3]: 160.25 pg/mL | IFN-γ cytokine concentration [4]: 0 pg/mL | IL-1 cytokine concentration [4]: 147.97 pg/mL | IL-2 cytokine concentration [4]: 0 pg/mL | IL-4 cytokine concentration [4]: 0 pg/mL | IL-5 cytokine concentration [4]: 0 pg/mL | IL-6 cytokine concentration [4]: 109.89 pg/mL | IL-9 cytokine concentration [4]: 0 pg/mL | IL-10 cytokine concentration [4]: 159.09 pg/mL | IL-12 cytokine concentration [4]: 0 pg/mL | IL-12p70 cytokine concentration [4]: 0 pg/mL | IL-13 cytokine concentration [4]: 172.66 pg/mL | IL-17 cytokine concentration [4]: 127.21 pg/mL | IL-22 cytokine concentration [4]: 0 pg/mL | INF-α cytokine concentration [4]: 0 pg/mL | TNF-a cytokine concentration [4]: 65.47 pg/mL | TNF-α cytokine concentration [4]: 65.47 pg/mL | IFN-γ cytokine concentration [5]: 1854.29 pg/mL | IL-1 cytokine concentration [5]: 69689.2 pg/mL | IL-2 cytokine concentration [5]: 12000 pg/mL | IL-4 cytokine concentration [5]: 235.78 pg/mL | IL-5 cytokine concentration [5]: 173.34 pg/mL | IL-6 cytokine concentration [5]: 2058.24 pg/mL | IL-9 cytokine concentration [5]: 162.4 pg/mL | IL-10 cytokine concentration [5]: 4936.79 pg/mL | IL-12p70 cytokine concentration [5]: 1703.5 pg/mL | IL-13 cytokine concentration [5]: 944.87 pg/mL | IL-17 cytokine concentration [5]: 3116.43 pg/mL | IL-22 cytokine concentration [5]: 24079 pg/mL | TNF-α cytokine concentration [5]: 3600 pg/mL | IFN-γ cytokine concentration [6]: 12070.4 pg/mL | IL-1 cytokine concentration [6]: 594.38 pg/mL | IL-2 cytokine concentration [6]: 3486.84 pg/mL | IL-4 cytokine concentration [6]: 41.83 pg/mL | IL-5 cytokine concentration [6]: 379.39 pg/mL | IL-6 cytokine concentration [6]: 1535.49 pg/mL | IL-9 cytokine concentration [6]: 332.07 pg/mL | IL-10 cytokine concentration [6]: 877.54 pg/mL | IL-12 cytokine concentration [6]: 0 pg/mL | IL-12p70 cytokine concentration [6]: 0 pg/mL | IL-13 cytokine concentration [6]: 1158.74 pg/mL | IL-17 cytokine concentration [6]: 1808.01 pg/mL | IL-22 cytokine concentration [6]: 0 pg/mL | INF-α cytokine concentration [6]: 12070.42 pg/mL | TNF-a cytokine concentration [6]: 3998.01 pg/mL | TNF-α cytokine concentration [6]: 3998.01 pg/mL
